Experiments:
IKK beta = biological target: T1, IKK beta (Homo sapiens, UniProt O14920); assay: Kinase profiling; assay type: biochemical
T1 sequence (O14920 1-756): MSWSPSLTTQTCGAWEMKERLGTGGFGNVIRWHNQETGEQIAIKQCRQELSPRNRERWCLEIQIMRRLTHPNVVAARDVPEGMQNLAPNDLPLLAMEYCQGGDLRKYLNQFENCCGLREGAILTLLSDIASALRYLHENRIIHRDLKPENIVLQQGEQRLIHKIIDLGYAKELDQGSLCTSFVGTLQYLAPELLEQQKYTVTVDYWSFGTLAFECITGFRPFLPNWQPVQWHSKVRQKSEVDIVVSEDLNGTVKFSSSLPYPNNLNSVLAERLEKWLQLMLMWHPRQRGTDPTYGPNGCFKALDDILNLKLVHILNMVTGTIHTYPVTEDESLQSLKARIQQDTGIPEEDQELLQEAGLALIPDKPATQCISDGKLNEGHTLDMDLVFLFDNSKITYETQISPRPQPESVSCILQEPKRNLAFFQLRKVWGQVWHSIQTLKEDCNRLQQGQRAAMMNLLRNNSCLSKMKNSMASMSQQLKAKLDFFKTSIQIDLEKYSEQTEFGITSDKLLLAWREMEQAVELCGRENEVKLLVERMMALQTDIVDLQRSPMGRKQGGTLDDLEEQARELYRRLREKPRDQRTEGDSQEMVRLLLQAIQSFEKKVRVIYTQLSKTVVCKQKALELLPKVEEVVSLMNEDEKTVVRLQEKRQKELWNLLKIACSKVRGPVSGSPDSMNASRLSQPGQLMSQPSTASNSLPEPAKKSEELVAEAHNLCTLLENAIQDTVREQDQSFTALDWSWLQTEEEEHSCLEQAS

ULK2 = biological target: T2, ULK2 (Homo sapiens, UniProt Q8IYT8); assay: Kinase profiling; assay type: biochemical
T2 sequence (Q8IYT8 1-1036): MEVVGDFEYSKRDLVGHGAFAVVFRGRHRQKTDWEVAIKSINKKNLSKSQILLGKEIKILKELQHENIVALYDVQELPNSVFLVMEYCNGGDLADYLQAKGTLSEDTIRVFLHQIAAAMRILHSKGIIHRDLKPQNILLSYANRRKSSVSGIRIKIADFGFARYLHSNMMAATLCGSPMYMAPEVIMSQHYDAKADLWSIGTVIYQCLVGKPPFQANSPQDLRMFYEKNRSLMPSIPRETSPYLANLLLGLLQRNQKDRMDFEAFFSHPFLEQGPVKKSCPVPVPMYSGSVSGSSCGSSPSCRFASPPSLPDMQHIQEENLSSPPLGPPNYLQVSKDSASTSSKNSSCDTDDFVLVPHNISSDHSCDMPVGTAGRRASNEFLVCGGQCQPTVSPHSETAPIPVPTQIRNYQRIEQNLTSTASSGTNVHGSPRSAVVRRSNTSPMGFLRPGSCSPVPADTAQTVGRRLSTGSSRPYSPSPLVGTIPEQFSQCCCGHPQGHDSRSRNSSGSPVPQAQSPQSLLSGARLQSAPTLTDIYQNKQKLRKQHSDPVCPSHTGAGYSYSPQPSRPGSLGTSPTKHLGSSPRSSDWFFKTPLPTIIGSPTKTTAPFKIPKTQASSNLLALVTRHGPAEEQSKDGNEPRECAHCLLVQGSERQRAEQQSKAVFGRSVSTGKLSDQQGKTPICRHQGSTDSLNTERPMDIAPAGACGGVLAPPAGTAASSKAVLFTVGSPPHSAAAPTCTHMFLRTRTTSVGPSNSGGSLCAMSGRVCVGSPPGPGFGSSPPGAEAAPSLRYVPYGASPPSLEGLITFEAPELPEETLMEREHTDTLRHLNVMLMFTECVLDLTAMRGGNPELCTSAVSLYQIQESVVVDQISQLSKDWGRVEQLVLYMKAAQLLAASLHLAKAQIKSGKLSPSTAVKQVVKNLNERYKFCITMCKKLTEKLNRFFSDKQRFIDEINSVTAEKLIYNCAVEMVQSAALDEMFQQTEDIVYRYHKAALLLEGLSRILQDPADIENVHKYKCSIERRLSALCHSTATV

CDK9-Cyclin T1 = CDK9-Cyclin T1 (Homo sapiens, UniProt P50750); assay: Kinase profiling; assay type: biochemical
CRTC3 = CRTC3 nuclear translocation (immunofluorescence); assay type: cell-based, mouse; settings: bone-marrow-derived macrophages, 1 h
Protocol: Macrophages were seeded on glass coverslips and treated with inhibitors for 1 h. Cells were then fixed for 10 min in 4% paraformaldehyde, permeabilized for 5 min using 0.1% Triton X-100 in PBS and blocked for 45 min using 3% BSA in PBS. Cells were stained with anti-CRTC3 and anti-tubulin followed by Alexa Fluor® […] anti-rabbit and Alexa Fluor® 488-conjugated anti-mouse antibodies respectively. Antibodies were diluted in blocking buffer and incubated with the cells for 45 min. Cells were mounted in Prolong Gold Antifade Reagent containing DAPI (Invitrogen) and visualized under a Zeiss LSM 700 confocal microscope using an Alpha Plan-Apochromat ×100/numerical aperture (NA) 1.46 objective (optical section thickness 0.7 μm). Fields of cells were selected at random using only the DAPI stained channel. Optical sections were taken through the centre of the nuclei, 10 fields collected per coverslip and images were quantified using the Volocity programme (PerkinElmer). Nuclei were identified using the DAPI stained channel, merged objects were separated and the mean intensity of the […] in the nuclear and cytoplasmic regions was measured. For each field, the mean of the nuclear to cytoplasmic intensity ratio was calculated, which was subsequently used to determine the overall mean nuclear to cytoplasmic intensity ratio for each treatment.

ERK5 = ERK5 (Homo sapiens, UniProt Q13164); assay: Kinase profiling; assay type: biochemical
Chain of ERK5 (Q13164 whole entry): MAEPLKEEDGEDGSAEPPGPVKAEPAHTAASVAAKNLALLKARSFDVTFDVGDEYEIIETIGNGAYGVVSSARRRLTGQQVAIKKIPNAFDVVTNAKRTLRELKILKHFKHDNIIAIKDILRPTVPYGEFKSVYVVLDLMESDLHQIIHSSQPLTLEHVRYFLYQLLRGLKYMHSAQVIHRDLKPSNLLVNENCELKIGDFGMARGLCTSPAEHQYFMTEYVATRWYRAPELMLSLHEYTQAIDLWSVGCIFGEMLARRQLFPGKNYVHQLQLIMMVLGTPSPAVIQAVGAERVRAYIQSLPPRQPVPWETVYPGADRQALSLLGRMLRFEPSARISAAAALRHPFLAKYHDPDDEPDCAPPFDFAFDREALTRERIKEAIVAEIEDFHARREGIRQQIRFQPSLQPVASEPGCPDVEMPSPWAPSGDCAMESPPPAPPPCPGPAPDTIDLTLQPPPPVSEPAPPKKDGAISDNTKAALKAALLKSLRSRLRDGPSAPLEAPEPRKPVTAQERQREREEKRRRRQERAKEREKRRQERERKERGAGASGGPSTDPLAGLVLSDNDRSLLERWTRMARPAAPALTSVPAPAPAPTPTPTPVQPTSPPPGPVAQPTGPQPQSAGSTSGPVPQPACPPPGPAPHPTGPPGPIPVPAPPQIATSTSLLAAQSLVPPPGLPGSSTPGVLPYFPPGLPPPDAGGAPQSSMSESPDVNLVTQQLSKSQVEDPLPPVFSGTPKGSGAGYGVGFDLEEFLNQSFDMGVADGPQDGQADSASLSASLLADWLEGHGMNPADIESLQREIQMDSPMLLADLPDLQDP

Chain of CDK9-Cyclin T1 (P50750 whole entry): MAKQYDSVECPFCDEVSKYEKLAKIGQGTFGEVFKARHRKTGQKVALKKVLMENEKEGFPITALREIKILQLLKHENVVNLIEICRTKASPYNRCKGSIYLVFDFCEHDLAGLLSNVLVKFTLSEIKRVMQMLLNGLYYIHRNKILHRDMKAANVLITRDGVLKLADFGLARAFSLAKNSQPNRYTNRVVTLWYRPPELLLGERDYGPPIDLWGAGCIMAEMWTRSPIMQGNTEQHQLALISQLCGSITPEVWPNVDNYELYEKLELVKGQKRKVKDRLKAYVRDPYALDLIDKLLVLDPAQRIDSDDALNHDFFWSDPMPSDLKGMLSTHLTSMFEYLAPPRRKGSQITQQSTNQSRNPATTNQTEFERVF
Chain of CDK9-Cyclin T1 (O60563 whole entry partner): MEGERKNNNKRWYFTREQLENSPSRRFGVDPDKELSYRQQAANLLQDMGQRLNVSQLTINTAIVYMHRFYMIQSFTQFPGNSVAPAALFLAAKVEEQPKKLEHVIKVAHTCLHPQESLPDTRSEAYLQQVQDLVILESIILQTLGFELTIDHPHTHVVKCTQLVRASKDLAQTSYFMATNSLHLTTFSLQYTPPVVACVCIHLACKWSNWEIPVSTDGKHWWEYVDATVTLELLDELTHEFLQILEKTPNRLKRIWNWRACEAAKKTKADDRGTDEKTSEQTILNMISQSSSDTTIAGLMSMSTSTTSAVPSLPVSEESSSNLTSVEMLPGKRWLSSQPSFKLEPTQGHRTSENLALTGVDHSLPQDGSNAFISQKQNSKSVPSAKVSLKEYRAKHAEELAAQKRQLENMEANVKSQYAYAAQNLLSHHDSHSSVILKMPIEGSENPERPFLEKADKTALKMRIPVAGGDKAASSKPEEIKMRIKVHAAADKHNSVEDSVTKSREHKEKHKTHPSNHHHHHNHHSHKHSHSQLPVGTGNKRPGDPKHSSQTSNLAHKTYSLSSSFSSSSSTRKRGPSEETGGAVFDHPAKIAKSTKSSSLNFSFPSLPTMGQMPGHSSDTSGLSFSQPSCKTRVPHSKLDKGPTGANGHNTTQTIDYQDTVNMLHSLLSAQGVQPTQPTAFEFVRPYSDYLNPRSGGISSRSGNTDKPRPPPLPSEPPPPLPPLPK

COc1cc(Nc2c(C#N)cnc3cc(OCCCN4CCN(C)CC4)c(OC)cc23)c(Cl)cc1Cl [Bosutinib, bosutinib]
remaining activity at 0.1 µM (IKK beta): 92 ± 15% | remaining activity at 0.1 µM (ULK2): 78 ± 10% | remaining activity at 1 µM (ULK2): 37 ± 1% | remaining activity at 0.1 µM (CDK9-Cyclin T1): 101 ± 8% | remaining activity at 1 µM (CDK9-Cyclin T1): 125 ± 16% | Localization of CRTC3 (CRTC3): translocation to the nucleus | remaining activity at 0.1 µM (ERK5): 74 ± 6% | remaining activity at 1 µM (ERK5): 67 ± 10%

Cc1nc(Nc2ncc(C(=O)Nc3c(C)cccc3Cl)s2)cc(N2CCN(CCO)CC2)n1 [Dasatinib]
remaining activity at 0.1 µM (IKK beta): 97 ± 21% | remaining activity at 1 µM (IKK beta; 1 µM): 99 ± 9% | remaining activity at 0.1 µM (ULK2): 101 ± 3% | remaining activity at 1 µM (ULK2): 91 ± 3% | remaining activity at 0.1 µM (CDK9-Cyclin T1): 122 ± 8% | remaining activity at 1 µM (CDK9-Cyclin T1): 138 ± 12% | Localization of CRTC3 (CRTC3): translocation to the nucleus | remaining activity at 0.1 µM (ERK5): 87 ± 2% | remaining activity at 1 µM (ERK5): 91 ± 4%

From PMC4286194 (Biochemical Journal, 2015)
